Here are results for one substance from patent US20170184604A1, “DD1ALPHA RECEPTOR AND USES THEREOF IN IMMUNE DISORDERS” (THE GENERAL HOSPITAL CORPORATION, priority 2014, published 2017).

The test system of experiment [1] is CD4+ or CD8+ T cells from wt- or DD1α−/− mice. Description: Mouse T cell activation assay (CFSE proliferation). Type of experiment: cell-based. Here is the method:
Enriched CD4+ and CD8+ T cells from Wt and DD1α−/− mice were stimulated, with 2.5 μg/ml anti-CD3 alone or together with DD1α-Ig or control Ig. The proliferations of CD4+ T cells (top graphs) or CD8+ T cells (bottom graphs) were determined by the percentage of CFSE-diluted CD8+ cells on day 3. The levels of cytokines (IFN-γ and TNF-α) in culture supernatant on day 2 were analyzed by ELISA. The results represent mean±SD from three experiments.
The inventors have discovered that DD1αregulates T cell activation through DD1α on T cells. […] The proliferations of CD4+ T cells were determined by percentage of CFSE-diluted CD4+ cells on day 3 and IFN-γ and levels in culture supernatants on day 2 were analyzed by ELISA. […] The proliferations of CD8+ T cells were determined by percentage of CD8+ T cells containing diluted CFSE signal on day 3. The cytokine levels in culture supernatant were analyzed by ELISA on day 2.
The amount of Ig protein was kept constant at 10 μg/ml by the addition of control Ig protein. Human CD4+ or CD8+ T cells were purified from freshly isolated PBMCs using CD4+ T Cell Isolation Kit II, human or CD8+ T Cell Isolation Kit, human (Miltenyi Biotec). Mouse CD4+ and CD8+ T cells were purified from splenocytes freshly isolated from mice using CD4+ T Cell Isolation Kit II, mouse or CD8a+ T Cell Isolation Kit II, mouse (Miltenyi Biotec). Purity was confirmed to be over 90% by flow cytometry. The T cells were labeled with 1 μM CFSE, quenched by cold FBS and incubated in the anti-CD3 & Ig proteins-coated plates. On day 2 after stimulation, supernatant was collected and cytokines were assayed by ELISA. On day 3, cells were stained with anti-CD4-APC (OKT4, eBioscience for human CD4+ T cells; RM4-5, eBioscience for mouse CD4+ T cells) or anti-CD8-APC (SK1, eBioscience for human CD8+ T cells; 53-6.7, eBioscience for mouse CD8+ T cells) and then analyzed for CFSE dilution by flow cytometry.

Experiment [2] concerns wt- or DD1α−/− mouse CD4+ T cells. Description: Ig fusion protein binding to CD4+ T cells from Wt and DD1α−/− mice. The protocol: FIGS. 6A-6E show physical association of DD1α with PD1 but not with PD-L1. (FIG. 6A) Interaction of DD1α with PD1 or DD1α. […] The bound Ig fusion proteins were detected with anti-Ig-APC. Empty vector (pcDNA3.1)-transfected cells stained with Ig proteins are shown as a negative control (gray filled) and other staining is shown as black open. (FIG. 6B) DD1α binds to both DD1α and PD1 on CD4+ T cells. Purified CD4+ T cells from Wt and DD1α−/− mice were assayed for binding to Ig fused DD1α or PD1 proteins. Cells were incubated with DD1α-Ig (open), PD1-Ig (open), or control Ig proteins (gray filled) and the bound Ig fusion proteins were detected by anti-Ig-APC. […] The bound Ig fusion proteins were detected by anti-Ig-APC. Binding amounts were determined by percentage of APC positive cells compared to control Ig protein-bound cells. (FIG. 6C) Ig-pulldown experiments show DD1α interaction with both DD1α and PD1. […] The bead bound proteins were eluted and determined by western blot analysis using anti-HA antibody (asterisks). […] The bead bound proteins were eluted and detected by western blot analysis with anti-DD1α or anti-PD1 antibody (asterisk). […] The levels of indicated proteins were analyzed by western blot analysis. Total RNAs from control siRNA or p53 siRNA transfected MCF7 cells were assessed for mRNA levels of PD1 or PD-L1 by real-time quantitative PCR. […]

For a further experiment, the system named is PD-L1. Description: Ig fusion protein staining of 293T transfectants (flow cytometry). Type of experiment: binding, human. The settings on record: cell surface staining. (In general: A flow cytometer gives signals particle by particle.)
The next experiment deals with DD1α. Description: Ig fusion protein-pull down assay. Type of experiment: binding, human. The protocol:
FIGS. 6A-6E show physical association of DD1α with PD1 but not with PD-L1. (FIG. 6A) Interaction of DD1α with PD1 or DD1α. […] The bound Ig fusion proteins were detected with anti-Ig-APC. Empty vector (pcDNA3.1)-transfected cells stained with Ig proteins are shown as a negative control (gray filled) and other staining is shown as black open. (FIG. 6B) DD1α binds to both DD1α and PD1 on CD4+ T cells. Purified CD4+ T cells from Wt and DD1α−/− mice were assayed for binding to Ig fused DD1α or PD1 proteins. Cells were incubated with DD1α-Ig (open), PD1-Ig (open), or control Ig proteins (gray filled) and the bound Ig fusion proteins were detected by anti-Ig-APC. […] The bound Ig fusion proteins were detected by anti-Ig-APC. Binding amounts were determined by percentage of APC positive cells compared to control Ig protein-bound cells. (FIG. 6C) Ig-pulldown experiments show DD1α interaction with both DD1α and PD1. […] The bead bound proteins were eluted and determined by western blot analysis using anti-HA antibody (asterisks). (FIG. 6D) Ig fusion proteins (control Ig, DD1α-Ig, or PD1-Ig) were incubated with lysates from Nutlin-3-treated MCF7 cells and pulled down using protein A/G agarose. The bead bound proteins were eluted and detected by western blot analysis with anti-DD1α or anti-PD1 antibody (asterisk). (FIG. 6E) p53-mediated induction of PD1 and PD-L1. MCF7 cells were treated by Nutlin-3 (10 μM) for 1 to 3 days. MCF7 cells were transfected with control siRNA or p53 siRNA for 24 hours and treated with CPT (500 nM) or DMSO (control) for 1 and 2 days. The levels of indicated proteins were analyzed by western blot analysis. Total RNAs from control siRNA or p53 siRNA transfected MCF7 cells were assessed for mRNA levels of PD1 or PD-L1 by real-time quantitative PCR. PD1 or PD-L1 mRNA levels were normalized to 36B4 expression and shown as mean±SD (n=3). Protein levels of PD1 and PD-L1 were examined in EJ-p53tet cells in the absence or presence of tetracycline (tet), ZR75-1 cells treated with CPT (500 nM), or A375 cells exposed to 13 Gy ionizing irradiation for the indicated times.
Ig fusion proteins (control Ig, DD1α-Ig, or PD1-Ig) were incubated with lysates from Nutlin-3-treated MCF7 cells and pulled down using proten A/G agarose. The bead bound proteins were eluted and detected by western blot analysis with anti-DD1α or anti-PD1 antibody.
Based on the results that both PD-1 and DD1α receptors on T cells contribute to the co-inhibitory roles for DD1α(FIG. 5), it was tested whether DD1α could physically and functionally associate with PD-1 receptor. […] To confirm the specificity of this interaction, the inventors carried out Ig fusion protein-pull down assays using lysates from PD-1, DD1α, or TIM3-transfected 293T cells. […]

Experiment [3] concerns Jurkat cells expressing DD1α receptor. Description: Ig fusion protein binding to Jurkat cells. Particulars: several concentrations; anti-Ig-APC detection. The protocol:
Jurkat cells overexpressing DD1alpha (transfected with DD1alpha cDNA) or control Jurkat cells were assayed for binding to Ig-fused DD1α or PD-1 proteins. Cells were incubated with several different concentrations of DD1α-Ig (left panels) or PD1-Ig (right panels), and the bound Ig fusion proteins were detected by anti-Ig-APC. Binding amounts were determined by percentage of APC positive cells.

Sequence of DD1α (Q9H7M9 33-311): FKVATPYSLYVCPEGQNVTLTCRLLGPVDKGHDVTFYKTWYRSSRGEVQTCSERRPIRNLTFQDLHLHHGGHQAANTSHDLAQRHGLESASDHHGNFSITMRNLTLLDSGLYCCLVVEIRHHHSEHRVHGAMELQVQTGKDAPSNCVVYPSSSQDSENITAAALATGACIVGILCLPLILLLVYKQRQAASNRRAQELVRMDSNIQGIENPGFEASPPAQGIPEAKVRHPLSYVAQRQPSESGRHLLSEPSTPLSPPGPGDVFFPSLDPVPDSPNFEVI

Take “DD1α-Ig: the extracellular region of DD1α fused with the immunoglobulin G Fc segment”: the “inhibition of anti-CD3-induced CD4+ or CD8+ T cell proliferation” value is recorded as approximately 30% in experiment [1] (DD1α−/− CD4+ or CD8+ T cells) and approximately 50% in experiment [1] (T cells from wt mice). Also, the “mouse CD4+ and CD8+ T cell activation” value in experiment [1] (dose-dependent) was “inhibitory effect”. Also, in experiment [2], the “binding to the surface of DD1α−/− CD4+ T cells compared with wt-CD4+ T cells” value is “significantly lower”. In addition, the “binding to PD-L1 transfectants” value in the experiment on PD-L1 is given as “not to PD-L1 or TIM-3 transfectants”. The “pull down of DD1α” value with DD1α (lysates from transfected 293T cells) is given as “pulled down”. In addition, in the experiment with DD1α (lysates of Nutlin-3-treated MCF7 cells), the “pull down of endogenous DD1α receptor” value is “detected”. Also, the “binding to Jurkat cells expressing DD1α receptor” value in experiment [3] is given as “bind”.
